Test results: the supplement of paper PMC12592484

How the values were obtained:
Assay in all cases: drug sensitivity score (DSS2, normalised partial AUC of dose-response, 72 h CellTiter-Glo viability) (DSS (dimensionless)); higher = more sensitive (stronger growth inhibition / cytotoxicity); extreme values may be limits of the assay
[1] = tested on: 22Rv1
How it was run: (§1)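 Viability of low-passage primary prostate cancer-associated fibroblasts, PF179T, WPMY-1, LNCaP and 22Rv1 cells was read by CellTiter-Glo 2.0 luminescence 72 h after seeding onto compounds pre-dispensed in 384-well plates at five doses over a 10,000-fold range. Readings were scaled between vehicle and positive-control wells. Sensitivity is reported as a drug sensitivity score from BREEZE, namely a partial area under the fitted logistic curve divided by the log of its upper asymptote, where higher means more sensitive.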

[2] = tested on: CAF#1 (primary prostate cancer-associated fibroblasts of myCAF-like type)
How it was run: as §1

[3] = tested on: CAF#2 (primary prostate cancer-associated fibroblasts of iCAF-like type)
How it was run: as §1

[4] = tested on: CAF#3 (primary prostate cancer-associated fibroblasts of myCAF-like type)
How it was run: as §1

[5] = tested on: CAF#4 (primary prostate cancer-associated fibroblasts of iCAF-like type)
How it was run: as §1

[6] = tested on: CAF#5 (primary prostate cancer-associated fibroblasts of myCAF-like type)
How it was run: as §1

[7] = tested on: CAF#6 (primary prostate cancer-associated fibroblasts of iCAF-like type)
How it was run: as §1

[8] = tested on: CAF#7 (primary prostate cancer-associated fibroblasts of myCAF-like type)
How it was run: as §1

[9] = tested on: LNCAP
How it was run: as §1

[10] = tested on: PF179T
How it was run: as §1

[11] = tested on: WPMY-1
How it was run: as §1

Row | Compound | drug sensitivity score [1] | drug sensitivity score [2] | drug sensitivity score [3] | drug sensitivity score [4] | drug sensitivity score [5] | drug sensitivity score [6] | drug sensitivity score [7] | drug sensitivity score [8] | drug sensitivity score [9] | drug sensitivity score [10] | drug sensitivity score [11]
1 | Oc1nc(-c2ccc(C(F)(F)F)cc2)nc2c1CSCC2 [XAV-939] (tested concentration range 1-10000 nM) | 0 | 2.6 | 5.4 | 2.5 | 2.6 | 4.1 | 4 | 4.3 | 2.1 | 2.6 | 0
2 | CC[C@@]1(O)C(=O)OCc2c1cc1n(c2=O)Cc2cc3c(CN(C)C)c(O)ccc3nc2-1 [Topotecan] (tested concentration range 1-10000 nM) | 24.5 | 8.9 | 10.3 | 4.8 | 8.1 | 6.9 | 4.8 | 5.3 | 22.7 | 8.7 | 14.6
3 | CNS(=O)(=O)Nc1nccc(Cc2c(C)c3ccc(Oc4ncccn4)cc3oc2=O)c1F (tested concentration range 0.1-1000 nM) | 0.2 | 0 | 0 | 0 | 0 | 0 | 0 | 0 | 1.1 | 0 | 0
4 | S=c1[nH]cnc2nc[nH]c12 [Mercaptopurine] (tested concentration range 1-10000 nM) | 2.7 | 0 | 0.1 | 0.1 | 2.8 | 0 | 1.4 | 0.1 | 0.2 | 0 | 9
5 | CC(C)Cn1cnc2c(N)nc3ccccc3c21 [Imiquimod] (tested concentration range 0.2-2500 nM) | 0 | 1.4 | 0 | 0.1 | 0 | 0 | 0 | 0 | 0 | 0 | 0
6 | CC(C)N(CCCNC(=O)Nc1ccc(C(C)(C)C)cc1)C[C@H]1O[C@@H](n2cc(Br)c3c(N)ncnc32)[C@H](O)[C@@H]1O [SGC0946] (tested concentration range 1-10000 nM) | 1.6 | 0.2 | 0 | 0.5 | 0.8 | 0 | 0.1 | 1.2 | 2.1 | 0 | 2.2
7 | C[C@]12CC[C@@H]3c4ccc(O)cc4C[C@@H](CCCCCCCCC[S+]([O-])CCCC(F)(F)C(F)(F)F)[C@H]3[C@@H]1CC[C@@H]2O (some centres undefined) [Fulvestrant] (tested concentration range 0.1-1000 nM) | 0 | 0 | 0 | 0.2 | 0 | 0 | 0.1 | 0 | 0.3 | 0 | 0
8 | CCN(CC)C(=S)SSC(=S)N(CC)CC [Disulfiram] (tested concentration range 5-50000 nM) | 0 | 5 | 3.7 | 0 | 0.9 | 6.6 | 0 | 0.1 | 0.1 | 0 | 0
9 | CS(=O)(=O)c1ccc(C(=O)Nc2ccc(Cl)c(-c3ccccn3)c2)c(Cl)c1 [Vismodegib] (tested concentration range 1-10000 nM) | 0 | 0 | 0 | 1.5 | 0 | 0 | 0 | 0 | 0.2 | 0 | 0
10 | O=C(O)CNC(=O)c1c(O)c2ccccc2n(Cc2ccccc2)c1=O [IOX-2] (tested concentration range 2.5-25000 nM) | 0 | 0 | 0 | 0 | 0 | 0 | 0 | 0 | 0 | 0 | 0
11 | NC(=O)N1CCC(CC(=O)N2CCC([C@H]3c4ncc(Br)cc4CCc4cc(Cl)cc(Br)c43)CC2)CC1 [Lonafarnib] (tested concentration range 5-50000 nM) | 18.6 | 8.2 | 9.7 | 9.2 | 9 | 7.6 | 8.5 | 7.7 | 16.1 | 3.1 | 16.6
12 | N#CCNC(=O)c1ccc(-c2ccnc(Nc3ccc(N4CCOCC4)cc3)n2)cc1 [Momelotinib] (tested concentration range 1-10000 nM) | 0.9 | 3.9 | 4.6 | 4.4 | 2.8 | 4.1 | 2.8 | 3.1 | 5 | 2.3 | 6.1
13 | CCN(CC)CCCC(C)Nc1ccnc2cc(Cl)ccc12 (centres undefined) [Chloroquine] (tested concentration range 10-100000 nM) | 11.2 | 5.7 | 9.8 | 8.4 | 8.6 | 7.4 | 8.2 | 8.6 | 9.8 | 9.5 | 10.4
14 | CN(Cc1cnc2nc(N)nc(N)c2n1)c1ccc(C(=O)N[C@@H](CCC(=O)O)C(=O)O)cc1 [Methotrexate] (tested concentration range 0.5-5000 nM) | 0 | 0 | 0 | 0 | 1.1 | 0 | 0.8 | 0 | 16.6 | 0 | 17.4
